Tested on: microbial population (oilfield produced waters containing a range of microbes)
Assay: ATP quantification of oilfield produced waters after biocide treatment
Assay type: cell-based
Conditions: 400 ppm, after four hours, oilfield produced waters amended with nutrients, versus untreated control
Protocol: Laboratory tests were performed to observe the environmentally friendly biocide of one embodiment for its ability to reduce microbial populations. The performance of the environmentally friendly biocide was further compared with that of two non-biodegradable biocidal quaternary amine compounds: alkyldimethylbenxylammonium chloride (ADBAC) and didecyldimethylammonium chloride (DDAC).
Test bottles were prepared with oilfield produced waters amended with nutrients containing a range of microbes. These bottles were treated with 400 ppm of either di(dimethyl(alkyl)ammonium chloride) ethanoyloxy-oxo, ADBAC, or DDAC, with one test bottle left as an untreated control. After four hours, ATP quantification and serial dilution using Modified Postgate's B media were performed for the various test bottles.

| Compound | reduction of the microbial population via ATP [%] |
| --- | --- |
| CCCCCCCCCC[N+](C)(C)CCCCCCCCCC.[Cl-] [DDAC, didecyldimethylammonium chloride] | 99.06 |
| alkyldimethylbenxylammonium chloride [ADBAC] | 99.16 |
| di(dimethyl(alkyl)ammonium chloride) ethanoyloxy-oxo | 96.79 |

— patent US12685311B2, “Environmentally friendly biocidal quaternized amine compound” (Baker Hughes Oilfield Operations LLC, priority 2023, dated 2026)
